ChEMBL document CHEMBL1201862, “PubChem BioAssay data set” (2004)
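Briefly, cells in 96-well plates were exposed to five compound concentrations for 48 h, and endpoints were estimated by linear interpolation. GI50 is the concentration that inhibits growth by half.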 Activity calls are given as the source filed them. Cut-off read from the data, not from the text of the source: active = GI50 up to about 1.1 µM and inactive = higher.

Experiments:
Test in all cases: growth of human tumour cells (NCI), 48 h
HOP-92 = tested on: HOP-92
SF-268 = tested on: SF-268
SK-MEL-28 = tested on: SK-MEL-28
SK-MEL-5 = tested on: SK-MEL-5
HCT-116 = tested on: HCT-116
NCI-H23 = tested on: NCI-H23
786-0 = tested on: 786-0
BT-549 = tested on: BT-549
NCI-H522 = tested on: NCI-H522
SNB-19 = tested on: SNB-19
PC-3 = tested on: PC-3
EKVX = tested on: EKVX
M14 = tested on: M14
T47D = tested on: T47D
OVCAR-5 = tested on: OVCAR-5
NCI/ADR-RES = tested on: NCI/ADR-RES
LOX IMVI = tested on: LOX IMVI
DU-145 = tested on: DU-145
SK-OV-3 = tested on: SK-OV-3
CCRF-CEM = tested on: CCRF-CEM

Compound | GI50 (HOP-92) | GI50 (SF-268) | GI50 (SK-MEL-28) | GI50 (SK-MEL-5) | GI50 (HCT-116) | GI50 (NCI-H23) | GI50 (786-0) | GI50 (BT-549) | GI50 (NCI-H522) | GI50 (SNB-19) | GI50 (PC-3) | GI50 (EKVX) | GI50 (M14) | GI50 (T47D) | GI50 (OVCAR-5) | GI50 (NCI/ADR-RES) | GI50 (LOX IMVI) | GI50 (DU-145) | GI50 (SK-OV-3) | GI50 (CCRF-CEM)
c1ccc2c3ccn4ccc5c6ccccc6[nH]c5c4c-3nc2c1 | 1.43 µM (inactive) | 1.24 µM (inactive) | 1.7 µM (inactive) | 1.46 µM (inactive) | 0.306 µM (active) | 1.69 µM (inactive) | 0.163 µM (active) | 1.77 µM (inactive) | 1.46 µM (inactive) | 1.49 µM (inactive) | 1.39 µM (inactive) | 1.02 µM (active) | 1.85 µM (inactive) | 1.15 µM (inactive) | 1.57 µM (inactive) | 1.72 µM (inactive) | 0.202 µM (active) | 1.43 µM (inactive) | 1.52 µM (inactive) | 0.31 µM (active)
COC(=O)CN(CC(=O)NCCCBr)C1CCCCC1N(CC(=O)OC)CC(=O)OC (configuration not stated) | 77.3 µM (inactive) | > 100 µM (inactive) | > 100 µM (inactive) | > 100 µM (inactive) | > 100 µM (inactive) | > 100 µM (inactive) | > 100 µM (inactive) | > 100 µM (inactive) | > 100 µM (inactive) | > 100 µM (inactive) | > 100 µM (inactive) | > 100 µM (inactive) | – | > 100 µM (inactive) | > 100 µM (inactive) | > 100 µM (inactive) | > 100 µM (inactive) | > 100 µM (inactive) | 32.3 µM (inactive) | > 100 µM (inactive)
CC#CC#C/C=C1/O[C@]2(CCC(OC(=O)CC(C)C)CO2)[C@@H]2O[C@H]12 (some centres not stated) | 27.4 µM (inactive) | 24.4 µM (inactive) | – | – | 15.4 µM (inactive) | 24.5 µM (inactive) | 20.9 µM (inactive) | 24.1 µM (inactive) | 19.3 µM (inactive) | 61.7 µM (inactive) | 23.5 µM (inactive) | 28.9 µM (inactive) | 21.9 µM (inactive) | 20.5 µM (inactive) | 28.2 µM (inactive) | 28.4 µM (inactive) | 16.2 µM (inactive) | 42.5 µM (inactive) | > 100 µM (inactive) | 7.69 µM (inactive)
O=S1(=O)N=C(SCc2ccccc2)N(c2ccccc2)c2ccncc21 | 22.2 µM (inactive) | 36.6 µM (inactive) | 91.2 µM (inactive) | 28.4 µM (inactive) | 35.3 µM (inactive) | 29.6 µM (inactive) | 40.8 µM (inactive) | 25.5 µM (inactive) | 18.7 µM (inactive) | 99.8 µM (inactive) | 25.7 µM (inactive) | 24.4 µM (inactive) | 36.3 µM (inactive) | 29.2 µM (inactive) | > 100 µM (inactive) | 21.7 µM (inactive) | 53.7 µM (inactive) | 30.5 µM (inactive) | 38.8 µM (inactive) | 28.5 µM (inactive)
CCOC(=O)CCC(C(=O)OCC)n1nnc2ccc(Nc3c(C)[n+]([O-])c4cc(F)c(OCC)cc4[n+]3[O-])cc21 (configuration not stated) | 24.6 µM (inactive) | 28 µM (inactive) | – | 50.8 µM (inactive) | 64.3 µM (inactive) | 73.3 µM (inactive) | > 100 µM (inactive) | 96.2 µM (inactive) | 61.7 µM (inactive) | > 100 µM (inactive) | > 100 µM (inactive) | 44.7 µM (inactive) | 62.4 µM (inactive) | 30.2 µM (inactive) | > 100 µM (inactive) | 87.7 µM (inactive) | 32.7 µM (inactive) | 58.9 µM (inactive) | > 100 µM (inactive) | 40 µM (inactive)
O=C1/C(=C\c2cccc(Oc3ccccc3)c2)S(=O)(=O)C(c2ccccc2)N1c1ccc(Cl)cc1 (configuration not stated) | 14 µM (inactive) | – | 17.8 µM (inactive) | 13.6 µM (inactive) | 13.9 µM (inactive) | 24.9 µM (inactive) | 14 µM (inactive) | 22.6 µM (inactive) | 15.7 µM (inactive) | 25.1 µM (inactive) | 17.1 µM (inactive) | 23 µM (inactive) | 14 µM (inactive) | 5.55 µM (inactive) | 11.7 µM (inactive) | 17.3 µM (inactive) | 10.4 µM (inactive) | 19.1 µM (inactive) | 32.2 µM (inactive) | 12.3 µM (inactive)
CSC(SC)=C1CC(=O)Nc2ccccc2C1=O | 22.2 µM (inactive) | > 100 µM (inactive) | 36.8 µM (inactive) | 51.5 µM (inactive) | > 100 µM (inactive) | 29.9 µM (inactive) | 45.6 µM (inactive) | 40.3 µM (inactive) | 57 µM (inactive) | > 100 µM (inactive) | > 100 µM (inactive) | > 100 µM (inactive) | 80.2 µM (inactive) | 29.9 µM (inactive) | > 100 µM (inactive) | > 100 µM (inactive) | 17.4 µM (inactive) | 91.6 µM (inactive) | > 100 µM (inactive) | 19.7 µM (inactive)
Cc1c(-c2ccccc2)c(C#N)c2nnn(C)c(=O)n12 | > 100 µM (inactive) | > 100 µM (inactive) | > 100 µM (inactive) | > 100 µM (inactive) | > 100 µM (inactive) | > 100 µM (inactive) | > 100 µM (inactive) | > 100 µM (inactive) | > 100 µM (inactive) | > 100 µM (inactive) | 64.3 µM (inactive) | > 100 µM (inactive) | > 100 µM (inactive) | > 100 µM (inactive) | > 100 µM (inactive) | > 100 µM (inactive) | > 100 µM (inactive) | > 100 µM (inactive) | 96.2 µM (inactive) | > 100 µM (inactive)
O=C(N/C=C1\C(=O)Oc2ccccc2C1=O)Oc1ccccc1 | 22.1 µM (inactive) | – | – | 32.7 µM (inactive) | 21.4 µM (inactive) | 25.6 µM (inactive) | 23.7 µM (inactive) | 18.7 µM (inactive) | 25 µM (inactive) | 30.6 µM (inactive) | 29.5 µM (inactive) | 27.7 µM (inactive) | 19.2 µM (inactive) | 22.4 µM (inactive) | 46.1 µM (inactive) | 27.4 µM (inactive) | 25.1 µM (inactive) | 20 µM (inactive) | 6.27 µM (inactive) | 25 µM (inactive)
C/C(=N\Nc1ncnc2ccccc12)c1ccccn1 | 0.25 µM (active) | < 0.0177 µM (active) | 0.369 µM (active) | 0.0237 µM (active) | < 0.011 µM (active) | < 0.0244 µM (active) | < 0.0236 µM (active) | 0.587 µM (active) | < 0.01 µM (active) | 0.802 µM (active) | < 0.0226 µM (active) | < 0.0169 µM (active) | 0.02 µM (active) | < 0.0185 µM (active) | 1.61 µM (inactive) | < 0.0168 µM (active) | 0.0194 µM (active) | 0.0718 µM (active) | 0.0299 µM (active) | < 0.01 µM (active)
COC1=CC(=O)C2=C(C1=O)[C@H]1CC[C@]3(C)[C@@H](O)CC[C@H]3[C@@H]1CC2 | 21.6 µM (inactive) | 17.3 µM (inactive) | 18.9 µM (inactive) | 15.5 µM (inactive) | 17 µM (inactive) | 23.7 µM (inactive) | 19.5 µM (inactive) | 17.9 µM (inactive) | 17.9 µM (inactive) | 24.4 µM (inactive) | 16.4 µM (inactive) | 16.8 µM (inactive) | 17.5 µM (inactive) | 13.8 µM (inactive) | 19.2 µM (inactive) | 27.5 µM (inactive) | 19.8 µM (inactive) | 17.2 µM (inactive) | 45 µM (inactive) | 6.67 µM (inactive)
CCc1nnc(-n2c(C)nc3cc(Cl)ccc3c2=O)s1 | 27 µM (inactive) | 37.8 µM (inactive) | 46.6 µM (inactive) | 21.3 µM (inactive) | 26.4 µM (inactive) | 31.6 µM (inactive) | 26.5 µM (inactive) | 44.6 µM (inactive) | 20.5 µM (inactive) | 36.1 µM (inactive) | 52.8 µM (inactive) | 49.2 µM (inactive) | 38.7 µM (inactive) | 27.9 µM (inactive) | > 100 µM (inactive) | 39.6 µM (inactive) | 39.1 µM (inactive) | 41.6 µM (inactive) | 38.4 µM (inactive) | 19.6 µM (inactive)
Cc1c(C(=O)NNc2ccccc2)n2c(S)nnc2c2ccccc12 | > 100 µM (inactive) | > 100 µM (inactive) | 86.7 µM (inactive) | > 100 µM (inactive) | > 100 µM (inactive) | > 100 µM (inactive) | > 100 µM (inactive) | 97.3 µM (inactive) | > 100 µM (inactive) | > 100 µM (inactive) | > 100 µM (inactive) | > 100 µM (inactive) | > 100 µM (inactive) | 40.5 µM (inactive) | > 100 µM (inactive) | > 100 µM (inactive) | > 100 µM (inactive) | > 100 µM (inactive) | > 100 µM (inactive) | > 100 µM (inactive)
CC(C)c1cc2c(c(O)c1O)[C@@]1(C(=O)O)CCCC(C)(C)[C@@H]1CC2 [CARNOSIC ACID] | 6.22 µM (inactive) | 18.8 µM (inactive) | 13.2 µM (inactive) | 16.2 µM (inactive) | 28.7 µM (inactive) | 20 µM (inactive) | 31 µM (inactive) | 10.5 µM (inactive) | 13 µM (inactive) | > 10 µM (inactive) | 15.3 µM (inactive) | 15.9 µM (inactive) | – | 18.4 µM (inactive) | 20.8 µM (inactive) | 15.6 µM (inactive) | 19.6 µM (inactive) | 25.1 µM (inactive) | 37.3 µM (inactive) | 3.18 µM (inactive)
